Measurements taken from US20120283203A1, “METHODS AND COMPOSITIONS FOR THE TREATMENT OF OBESITY, INSULIN RELATED DISEASES AND HYPERCHOLESTEROLEMIA” (Board of Trustees of Michigan State University, priority 2005, published 2012).
Where “and” joins values, the source holds several entries; their conditions need not be identical. Equal values may be shown once. Entries after “also recorded” stand apart in the source; their conditions may differ.

Key:
[1] = Body weight of C57BL/6J mice on high fat diet, 12-week feeding study; type: in vivo; conditions: for weight gain during the treatment period: 8 weeks of treatment in high fat diet, high fat control 9.76 g; for overall weight gain during the experimental period: 12 weeks, high fat control 18.98 g; for weight loss: compared to the high fat diet controls; for body weight: high fat diet with compound, high fat control 36.91 g, normal diet 31.5 g
Experimental: Animals and Diet: Male C57BL/6J mice, 4 weeks old, were purchased from Jackson Laboratories (Bar Harbor, Me., USA). The mice were individually housed under controlled temperature (70° F.) and 12 h light-dark cycles. The mice (n=40) had free access to water and laboratory non-purified diet for 5 days. After acclimatization, the mice were randomly divided into groups 1-5 (n=8) for the study. The experiments were carried out according to the ethical guidelines of University Laboratory Animal Resources (ULAR) at Michigan State University, East Lansing, Mich. The diets, 10% K. Cal. (normal) and 60% K. Cal. (high fat), were purchased from Research Diets (New Brunswick, N.J.). The controls were groups 1 and 2 and received normal (10% K. Cal.) and high fat (60% K. Cal.) diets, respectively, throughout the study. The food was prepared for each treatment separately by mixing 1 g of pure anthocyanin mixture, 500 mg each of betulinic and ursolic acids per kilogram high fat diet. The treatment groups, 3-5, were fed initially for 4 weeks with the high fat diet and then switched to the diet containing anthocyanins, betulinic acid or ursolic acids. Food was changed at intervals of three days to avoid oxidation of the fat or compounds. The daily food intake (FIG. 1) and the weekly body weight for each animal were determined throughout the study (FIG. 2A-C).

[2] = Glucose tolerance test (i.p. glucose 2 g/kg) in high fat diet fed mice; type: in vivo, C57BL/6J mice; conditions: for blood glucose level after 90 min of glucose load: 90 min after 2 g/kg i.p. glucose, high fat control 363, normal diet 190
Experimental: Glucose Tolerance Test (GTT). The glucose tolerance test was performed on five animals from each group (n=5) after 6 weeks of supplementation. The blood glucose level was measured at time 0 (min) with a Free Style Flash (TheraSense, Inc., CA) handheld glucometer using the test strips (Free Style, TheraSense, Inc., CA). For GTT, a sterile solution containing 2 g of glucose per kg body weight was injected intraperitoneally (i.p.). The tail vein blood was collected and glucose levels measured at 5, 10, 15, 30, 60, and 90 min, respectively. The blood glucose levels were plotted against the time (FIG. 3).

[3] = Total plasma cholesterol at end of feeding study; type: in vivo, C57BL/6J mice; conditions: high fat control 156.4, normal diet 120.5
Experimental: Collection of serum, liver and adipose tissue. The feeding was terminated after 12 weeks.
Determination of Plasma Cholesterol: The total plasma cholesterol was analyzed by Clinical Pathology Laboratory at the Diagnostic Center for Population and Animal Health, College of Veterinary Medicine, Michigan State University according to the established standard analytical protocol for total cholesterol.

[4] = for plasma insulin level: end of feeding, controls 0.47 and 0.41 ng/mL
Experimental: Collection of serum, liver and adipose tissue. The feeding was terminated after 12 weeks. The animals were then anesthetized by using isoflurane, sacrificed and blood was collected by cardiac puncture in heparinized tubes. The plasma was separated by centrifugation at 1600×g for 10 min at 4° C., frozen immediately and stored at −20° C. until use. […] All tissues were then transferred from liquid nitrogen and stored at −80° C. until analyses.
Radio Immuno Assay (RIA). The plasma insulin levels were measured by rat insulin RIA kit purchased from LINCO Research Inc. (St. Charles, Mo.). The insulin standards (100 aliquots) were pipetted to 12×75 mm test tubes. A total of 10 concentrations of insulin, ranging from 0.1-10 ng/mL, were used to determine the standard curve. The plasma samples (aliquots of 1-25 μl) were added to test tubes and the assay buffer was added to attain a total sample volume of 100 μl. The ^125I labeled insulin and anti rat insulin antibody (100 μL each) were added to the tubes, mixed and incubated at 4° C. After 24 h, the precipitating reagent (1 mL) was added and incubated again at 4° C. for 20 min to precipitate the insulin bound to the antibody. The tubes were then centrifuged for 20 min at 3000 g, decanted and the radioactivity was measured using a gamma counter.

[5] = tested on: INS-1 832/13 cells; test: Insulin secretion by INS-1 832/13 pancreatic beta cells (RIA, normalized to cellular protein); type: cell-based, rodent; conditions: for increase in insulin secretion: increase over untreated cells; for fold increase in insulin secretion: vs untreated cells
Experimental: Insulin Secretion Studies. INS-1 832/13 cells (kindly provided by Dr Christopher Newgard, Duke University, N.C.) were routinely cultured in 5% CO2/air at 37° C. in RPMI-1640 medium containing 11.1 mM glucose and supplemented with 10% FBS (Fetal Bovine Serum), 10 mM HEPES, 100 U/ml penicillin, […] streptomycin, 4 mM Glutamine, 1 mM sodium pyruvate, and 50 μM 2-mercaptoethanol. Cells were passed weekly after trypsin-EDTA detachment. For static secretion studies, cells were plated on 24 well plates at a density of 0.64×10^6 cells per well and grown for 24 h. The cells were then cultured for an additional 24 h in RPMI-1640 containing 4 mM glucose and the supplements described above. Cells were then incubated twice for 30 min in Krebs Ringer Bicarbonate buffer (KRBB) containing 4 mM glucose and 0.1% BSA. Cells were rapidly washed with KRBB and incubated for 60 min KRBB containing 4 or 10 mM glucose with or without the indicated anthocyanins or anthocyanidins. The medium was then removed for determining insulin release. The cells were then washed twice with PBS and dissolved in 1 M NaOH. Cellular protein concentration was then determined by Lowry assay. Anthocyanins and anthocyanidins were dissolved in DMSO to obtain desired concentrations. Final concentration of DMSO was 0.1%. The insulin secreted into the medium by the cells was determined by radioimmuno assay and normalized to total cellular protein.
Radio Immuno Assay (RIA). The Kit for RIA was purchased from LINCO Research Inc. (St Charles, Mo.), and the assay was conducted according to the manufacturer's directions. Briefly, 0.1-10 ng of insulin standards (100 μl) were added to 12×75 mm test tubes. Similarly, samples (25 μl) from the insulin secretion studies were also added to the test tubes. To this, an aliquot (75 μl) of assay buffer was added. The ^125I labeled insulin (100 μl) was then added to each test tube. […] The tubes were then centrifuged and the radioactivity was measured using a gamma counter.
Lowry protein Assay. The amount of protein in the assay wells was determined by Lowry method. The Lowry assay solution was prepared by combining the Lowry solution, CuSO4.5H2O (1%), and sodium tartarate (1%). Briefly, the protein sample (100 μl) and Lowry mixture (1 mL) were mixed in a test tube (12×75). The Folin-Ciolatues reagent (100 μl) was added to these tubes, mixed, and incubated for 30 min at room temperature. The optical density of resulting solutions was read at 700 nm using a UV spectrophotometer.

[6] = 4 and 10 mM glucose, or glucose level not specified

## C=C(C)[C@@H]1CC[C@]2(C(=O)O)CC[C@]3(C)[C@H](CC[C@@H]4[C@@]5(C)CC[C@H](O)C(C)(C)[C@@H]5CC[C@]43C)[C@@H]12 [betulinic acid]
[1]
  weight gain during the treatment period: 7.73 ± 0.44 g
  overall weight gain during the experimental period: 15.16 g
  weight loss: 21%
  body weight: 33.54 g
[1]; listed as 2 (group 4)
  weight gain during the treatment period: 7.73 g
[2]
  blood glucose level after 90 min of glucose load: 317.8 ± 21.9 mg/dL
[2]; before glucose load, high fat control 119.8
  blood glucose level at zero time: 123.4 ± 6.0 mg/dL
[3]
  plasma cholesterol level: 126.5 ± 14.01 mg/dL
[4]
  plasma insulin level: 460 ± 93.68 ng/mL and 460.86 ± 193.68 ng/mL

## COc1cc(-c2[o+]c3cc(O)cc(O)c3cc2O)cc(O)c1O [petunidin]
[5]; 4 mM glucose, 50 μg/mL
  increase in insulin secretion: 4 ng/mg of protein

## Oc1cc(O)c2cc(O)c(-c3cc(O)c(O)c(O)c3)[o+]c2c1 [delphinidin]
[5]; 4 mM glucose, 50 μg/mL
  increase in insulin secretion: 6 ng/mg of protein

## Oc1ccc(-c2[o+]c3cc(O)cc(O)c3cc2O)cc1 [pelargonidin]
[5]; 4 mM glucose, 50 μg/mL
  insulin secreted: 49 ng/mg of protein
  fold increase in insulin secretion: 1.4 fold
[5]; 10 mM glucose, 50 μg/mL
  insulin secreted: 91 ng/mg protein
  fold increase in insulin secretion: 1.2 fold

## C[C@H]1[C@H](C)CC[C@]2(C(=O)O)CC[C@]3(C)C(=CC[C@@H]4[C@@]5(C)CC[C@H](O)C(C)(C)[C@@H]5CC[C@]43C)[C@H]12 [ursolic acid]
[1]; listed as 3 (group 5)
  weight gain during the treatment period: 8.78 g
[1]
  overall weight gain during the experimental period: 17.45 g
  weight loss: not significant
  body weight: 34.89 g
[1]; compared to high fat diet control
  effect on body weight (in words): did not decrease bodyweight of the treated animals significantly
[2]
  blood glucose level after 90 min of glucose load: 227 ± 22.982 mg/dL
[2]; after glucose injection
  time at which blood glucose concentration reached the maximum: 60 min
[2]; high fat diet fed mice
  glucose tolerance / insulin resistance (in words): corrected glucose levels similar to control group animals fed on normal diet; also recorded: overcame the insulin resistance; also recorded: glucose absorption was slow
[4]
  plasma insulin level: 52.25 ± 8.84 ng/mL and 52.25 ± 18.84 ng/mL

## anthocyanins
[4]; mouse, in vivo
  hypoglycemia: without causing hypoglycemia

## Oc1cc(O)c2cc(O)c(-c3ccc(O)c(O)c3)[o+]c2c1 [cyanidin]
[5]; 4 mM glucose, 50 μg/mL
  insulin secreted: 29 ng/mg of protein
  fold increase in insulin secretion: 1.5 fold
[5]; 10 mM glucose, 50 μg/mL
  insulin secreted: 88 ng/mg protein

## OC[C@H]1O[C@@H](Oc2cc3c(O)cc(O)cc3[o+]c2-c2cc(O)c(O)c(O)c2)[C@H](O)[C@@H](O)[C@@H]1O [delphinidin-3-glucoside]
[5]; 4 mM glucose, 50 μg/mL
  insulin secreted: 49 ng/mg of protein
  fold increase in insulin secretion: 1.8 fold
[5]; 10 mM glucose, 50 μg/mL
  insulin secreted: 113 ng/mg protein
  fold increase in insulin secretion: 1.4 fold
[5]; [6]
  effect on insulin secretion (in words): most effective insulin secretagogues; also recorded: significantly induced the insulin secretion
[5]; 4 and 10 mM glucose, or glucose level not specified, listed as Delphinidin-3-glucoside
  effect on insulin secretion (in words): most active anthocyanin tested

## OC[C@H]1O[C@@H](Oc2cc3c(O)cc(O)cc3[o+]c2-c2ccc(O)c(O)c2)[C@H](O)[C@@H](O)[C@@H]1O [cyanidin-3-glucoside]
[5]; 4 mM glucose
  effect on insulin secretion (in words): less active than delphinidin-3-glucoside
[5]; 4 mM glucose, 5 μg/mL, untreated cells 33
  insulin secreted: 46 ng of insulin per mg protein
[5]; 4 mM glucose, 50 μg/mL
  increase in insulin secretion: 9 ng/mg of protein
  fold increase in insulin secretion: 1.3 fold
[5]; 4 mM glucose, 10, 50, 100 and 250 μg/mL
  dose dependent insulin secretion (in words): no significant difference in insulin secretion
[5]; 10 mM glucose
  effect on insulin secretion (in words): more active
[5]; 10 mM glucose, 50 μg/mL
  insulin secreted: 119 ng/mg protein
  fold increase in insulin secretion: 1.43 fold
[5]; [6]
  effect on insulin secretion (in words): most effective insulin secretagogues

## OCC1OC(Oc2cc3c(O)cc(O)cc3[o+]c2-c2ccc(O)cc2)C(O)C(O)C1O (stereo not shown) [pelargonidin-3-galactoside]
[5]; 4 mM glucose
  effect on insulin secretion (in words): did not increase the insulin secretion
[5]; [6]
  effect on insulin secretion (in words): did not induce insulin secretion

## OC[C@H]1O[C@@H](Oc2cc3c(O)cc(O)cc3[o+]c2-c2ccc(O)c(O)c2)[C@H](O)[C@@H](O)[C@H]1O [cyanidin-3-galactoside]
[5]; 4 mM glucose
  effect on insulin secretion (in words): did not increase the insulin secretion
[5]; 10 mM glucose, 50 μg/mL
  increase in insulin secretion: 17 ng/mg of protein
  fold increase in insulin secretion: 1.2 fold
[5]; [6]
  effect on insulin secretion (in words): significant increase in insulin secretion
